pIC50: −log10 of the molar value.
Experiments:
[1] = target: T1, Neprilysin (Rattus norvegicus, UniProt P07861); assay: Compound was tested for inhibition of rat kidney neutral endopeptidase
T1 sequence (P07861 whole entry): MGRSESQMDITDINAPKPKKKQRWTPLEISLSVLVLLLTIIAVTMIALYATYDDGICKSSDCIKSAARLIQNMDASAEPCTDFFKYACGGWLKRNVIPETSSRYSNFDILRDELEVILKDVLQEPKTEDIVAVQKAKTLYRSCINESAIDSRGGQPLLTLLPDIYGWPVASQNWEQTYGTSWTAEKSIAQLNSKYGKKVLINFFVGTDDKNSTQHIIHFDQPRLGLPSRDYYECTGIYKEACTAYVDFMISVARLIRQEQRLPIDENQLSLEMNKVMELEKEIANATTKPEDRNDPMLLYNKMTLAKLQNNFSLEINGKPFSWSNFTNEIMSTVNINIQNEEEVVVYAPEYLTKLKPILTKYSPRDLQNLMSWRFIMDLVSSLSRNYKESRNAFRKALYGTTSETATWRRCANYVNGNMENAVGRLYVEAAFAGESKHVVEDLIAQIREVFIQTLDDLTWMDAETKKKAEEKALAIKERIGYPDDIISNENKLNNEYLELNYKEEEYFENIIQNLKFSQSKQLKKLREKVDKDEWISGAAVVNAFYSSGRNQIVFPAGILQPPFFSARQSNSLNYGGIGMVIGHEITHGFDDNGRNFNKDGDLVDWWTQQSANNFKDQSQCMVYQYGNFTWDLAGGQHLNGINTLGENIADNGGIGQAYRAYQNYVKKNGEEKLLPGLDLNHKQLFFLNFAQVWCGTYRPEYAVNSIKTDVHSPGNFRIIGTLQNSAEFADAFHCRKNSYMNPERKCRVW

[2] = Compound was tested for inhibition of thermolysine, a bacterial zinc-endopeptidase; type: functional

Q: With `O=C(O)CNC(=O)[C@H]1[C@H](S)CC[C@@H]1c1ccccc1` as the compound, how does the pIC50 [1] read?
A: 6.37

Q: And the pIC50 [2]?
A: 4.54

Q: With `O=C(O)[C@@H]1CCCC2c3ccccc3C[C@H](CS)C(=O)N21` (some centres not stated) as the compound, how does the pIC50 [1] read?
A: < 6.52

Q: With `O=C(O)CNC(=O)[C@@H]1[C@@H](S)CC[C@H]1c1ccccc1` as the compound, how does the pIC50 [1] read?
A: 6.32

Q: What about the pIC50 [2] of the same compound?
A: 3.96

Q: With `O=C(O)CNC(=O)[C@H](CS)Cc1ccccc1` [(R)-THIORPHAN] as the compound, how does the pIC50 [2] read?
A: 5.52

Q: With `O=C(O)CNC(=O)[C@@H](CS)Cc1ccccc1` [(S)-THIORPHAN] as the compound, how does the pIC50 [2] read?
A: 5.74

Source: ChEMBL document CHEMBL1129157, “Design and synthesis of a new class of conformationally constrained inhibitors to probe the active sites of thermolysine and neutral endopeptidase 24.11” (Bioorg Med Chem Lett, 1996)
